Reference: article PMC9090141 (Pediatric blood & cancer, 2021)
“Also recorded” adds a separate entry of the source. Where a name gives a salt, the structure may show the parent alone. Read-outs that look alike come from different tables or passages of the source.

Tested on: pediatric patients with recurrent or refractory solid and CNS tumors
[1] = cycle 1, Dose Level 2 (N=5), 100 mg/m^2
[2] = cycle 1, Dose Level 3 (N=4), 125 mg/m^2
[3] = cycle 1, Dose Level 4 (N=10), 150 mg/m^2
[4] = cycle 1, drug-related, all dose levels, 25 evaluable

COc1cccc(OCCCN)c1-c1cc(Nc2cnc(C#N)cn2)n[nH]1 [prexasertib, Prexasertib mesylate monohydrate]
Headache, ≥ Grade 3 [1]: 0 (0) No. (%)
Hypokalemia, All [1]: 2 (40) No. (%)
Hypokalemia, ≥ Grade 3 [1]: 0 (0) No. (%)
Hypophosphatemia, All [1]: 0 (0) No. (%)
Hypophosphatemia, ≥ Grade 3 [1]: 0 (0) No. (%)
Infusion-related reaction, All [1]: 1 (20) No. (%)
Infusion-related reaction, ≥ Grade 3 [1]: 0 (0) No. (%)
Lymphocyte count decreased, All [1]: 2 (40) No. (%)
Lymphocyte count decreased, ≥ Grade 3 [1]: 0 (0) No. (%)
Myalgia, All [1]: 1 (20) No. (%)
Myalgia, ≥ Grade 3 [1]: 0 (0) No. (%)
Nausea, All [1]: 1 (20) No. (%)
Nausea, ≥ Grade 3 [1]: 0 (0) No. (%)
Neutrophil count decreased, All [1]: 5 (100) No. (%)
Neutrophil count decreased, ≥ Grade 3 [1]: 5 (100) No. (%)
Platelet count decreased, All [1]: 5 (100) No. (%)
Platelet count decreased, ≥ Grade 3 [1]: 2 (40) No. (%)
Vomiting, All [1]: 1 (20) No. (%)
Vomiting, ≥ Grade 3 [1]: 0 (0) No. (%)
White blood cell decreased, All [1]: 5 (100) No. (%)
White blood cell decreased, ≥ Grade 3 [1]: 3 (60) No. (%)
Alanine aminotransferase increased, All [2]: 0 (0) No. (%)
Alanine aminotransferase increased, ≥ Grade 3 [2]: 0 (0) No. (%)
Anemia, All [2]: 3 (75) No. (%)
Anemia, ≥ Grade 3 [2]: 1 (25) No. (%)
Anorexia, All [2]: 0 (0) No. (%)
Anorexia, ≥ Grade 3 [2]: 0 (0) No. (%)
Aspartate aminotransferase increased, All [2]: 0 (0) No. (%)
Aspartate aminotransferase increased, ≥ Grade 3 [2]: 0 (0) No. (%)
Diarrhea, All [2]: 0 (0) No. (%)
Diarrhea, ≥ Grade 3 [2]: 0 (0) No. (%)
Electrocardiogram QT corrected interval prolonged, All [2]: 2 (50) No. (%)
Electrocardiogram QT corrected interval prolonged, ≥ Grade 3 [2]: 0 (0) No. (%)
Fatigue, All [2]: 2 (50) No. (%)
Fatigue, ≥ Grade 3 [2]: 0 (0) No. (%)
Headache, All [2]: 1 (25) No. (%)
Headache, ≥ Grade 3 [2]: 0 (0) No. (%)
Hypokalemia, All [2]: 1 (25) No. (%)
Hypokalemia, ≥ Grade 3 [2]: 0 (0) No. (%)
Hypophosphatemia, All [2]: 0 (0) No. (%)
Hypophosphatemia, ≥ Grade 3 [2]: 0 (0) No. (%)
Infusion-related reaction, All [2]: 0 (0) No. (%)
Infusion-related reaction, ≥ Grade 3 [2]: 0 (0) No. (%)
Lymphocyte count decreased, All [2]: 2 (50) No. (%)
Lymphocyte count decreased, ≥ Grade 3 [2]: 2 (50) No. (%)
Myalgia, All [2]: 0 (0) No. (%)
Myalgia, ≥ Grade 3 [2]: 0 (0) No. (%)
Nausea, All [2]: 0 (0) No. (%)
Nausea, ≥ Grade 3 [2]: 0 (0) No. (%)
Neutrophil count decreased, All [2]: 4 (100) No. (%)
Neutrophil count decreased, ≥ Grade 3 [2]: 4 (100) No. (%)
Platelet count decreased, All [2]: 4 (100) No. (%)
Platelet count decreased, ≥ Grade 3 [2]: 2 (50) No. (%)
Vomiting, All [2]: 0 (0) No. (%)
Vomiting, ≥ Grade 3 [2]: 0 (0) No. (%)
White blood cell decreased, All [2]: 4 (100) No. (%)
White blood cell decreased, ≥ Grade 3 [2]: 3 (75) No. (%)
Alanine aminotransferase increased, All [3]: 1 (10) No. (%)
Alanine aminotransferase increased, ≥ Grade 3 [3]: 0 (0) No. (%)
Anemia, All [3]: 8 (80) No. (%)
Anemia, ≥ Grade 3 [3]: 1 (10) No. (%)
Anorexia, All [3]: 1 (10) No. (%)
Anorexia, ≥ Grade 3 [3]: 0 (0) No. (%)
Aspartate aminotransferase increased, All [3]: 1 (10) No. (%)
Aspartate aminotransferase increased, ≥ Grade 3 [3]: 0 (0) No. (%)
Diarrhea, All [3]: 1 (10) No. (%)
Diarrhea, ≥ Grade 3 [3]: 0 (0) No. (%)
Electrocardiogram QT corrected interval prolonged, All [3]: 4 (40) No. (%)
Electrocardiogram QT corrected interval prolonged, ≥ Grade 3 [3]: 0 (0) No. (%)
Fatigue, All [3]: 2 (20) No. (%)
Fatigue, ≥ Grade 3 [3]: 0 (0) No. (%)
Headache, All [3]: 2 (20) No. (%)
Headache, ≥ Grade 3 [3]: 0 (0) No. (%)
Hypokalemia, All [3]: 2 (20) No. (%)
Hypokalemia, ≥ Grade 3 [3]: 0 (0) No. (%)
Hypophosphatemia, All [3]: 3 (30) No. (%)
Hypophosphatemia, ≥ Grade 3 [3]: 0 (0) No. (%)
Infusion-related reaction, All [3]: 1 (10) No. (%)
Infusion-related reaction, ≥ Grade 3 [3]: 0 (0) No. (%)
Lymphocyte count decreased, All [3]: 5 (50) No. (%)
Lymphocyte count decreased, ≥ Grade 3 [3]: 2 (20) No. (%)
Myalgia, All [3]: 2 (20) No. (%)
Myalgia, ≥ Grade 3 [3]: 0 (0) No. (%)
Nausea, All [3]: 3 (30) No. (%)
Nausea, ≥ Grade 3 [3]: 0 (0) No. (%)
Neutrophil count decreased, All [3]: 10 (100) No. (%)
Neutrophil count decreased, ≥ Grade 3 [3]: 10 (100) No. (%)
Platelet count decreased, All [3]: 8 (80) No. (%)
Platelet count decreased, ≥ Grade 3 [3]: 1 (10) No. (%)
Vomiting, All [3]: 4 (40) No. (%)
Vomiting, ≥ Grade 3 [3]: 0 (0) No. (%)
White blood cell decreased, All [3]: 10 (100) No. (%)
White blood cell decreased, ≥ Grade 3 [3]: 7 (70) No. (%)
grade 3/4 anemia, patients [4]: 12%
grade 3/4 leukopenia, patients [4]: 68%
grade 3/4 lymphopenia, patients [4]: 24%
grade 3/4 neutropenia, patients [4]: 100%
grade 3/4 thrombocytopenia, patients [4]: 24%
dose-limiting toxicities (DLTs) (cycle 1 or later, all dose levels 80-150 mg/m^2): no cycle 1 or later dose-limiting toxicities; also recorded: No DLTs
